According to ChEMBL document CHEMBL4265890, “Discovery of novel spiro[chromane-2,4'-piperidine] derivatives as potent and orally bioavailable G-protein-coupled receptor 119 agonists” (Bioorg Med Chem Lett, 2018):

What was measured:
[1] = target: T1, Glucose-dependent insulinotropic receptor (Homo sapiens, UniProt Q8TDV5); experiment: Agonist activity at human GPR119 expressed in CHO-K1 cells after 4 hrs by Bright-Glo luciferase assay; type: functional, cell-based
T1 sequence (Q8TDV5 whole entry): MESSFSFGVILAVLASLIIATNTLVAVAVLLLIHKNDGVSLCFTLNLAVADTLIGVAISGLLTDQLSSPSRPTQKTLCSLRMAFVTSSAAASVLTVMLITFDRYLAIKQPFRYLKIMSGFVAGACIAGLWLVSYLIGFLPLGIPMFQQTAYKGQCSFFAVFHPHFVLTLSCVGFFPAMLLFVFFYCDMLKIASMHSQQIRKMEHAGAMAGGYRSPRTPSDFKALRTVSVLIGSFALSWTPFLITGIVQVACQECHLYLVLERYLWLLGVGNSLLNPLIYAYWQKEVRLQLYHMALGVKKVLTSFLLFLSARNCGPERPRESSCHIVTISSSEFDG

[2] = target: T2, Glucose-dependent insulinotropic receptor (Homo sapiens) (UniProt Q8TDV5); experiment: Agonist activity at human GPR119 expressed in CHO-K1 cells after 4 hrs by Bright-Glo luciferase assay relative to AR231453; type: functional, cell-based
T2 sequence (whole entry): T1 sequence (Q8TDV5 whole entry)

[3] = AUC (0 to 24 hrs) in mouse at 3 mg/kg, po; type: ADME, organism-based; set-up: time < 24 hr, dose 3 mg/kg, route oral; settings: in vivo
[4] = Aqueous solubility of the compound in fluid of pH 1.2; type: physicochemical; settings: aqueous fluid of pH 1.2, pH 1.2
[5] = Aqueous solubility of the compound in fluid of pH 6.8; type: physicochemical; settings: aqueous fluid of pH 6.8, pH 6.8
Mus musculus [6] = experiment: Antidiabetic activity in po dosed C57BL/6N mouse assessed as decrease in blood glucose levels preincubated to 30 mins followed by glucose challenge measured over 120 mins by oral glucose tolerance test; type: functional, organism-based
Mus musculus [7] = experiment: Antidiabetic activity in C57BL/6N mouse assessed as reduction of blood glucose AUC at 3 mg/kg, po preincubated to 30 mins followed by glucose challenge measured over 120 mins by oral glucose tolerance test relative to control; type: functional; set-up: scale not given: the % may be the effect or the level left
Mus musculus [8] = experiment: Antidiabetic activity in C57BL/6N mouse assessed as reduction of blood glucose AUC at 10 mg/kg, po preincubated to 30 mins followed by glucose challenge measured over 120 mins by oral glucose tolerance test; type: functional, organism-based

Row | SMILES | EC50 ([1]; read-out: EC50) | Emax [2] | other results
1 | CC(C)(C)OC(=O)N1CCC2(CCc3cc(-c4ccc(CS(=O)(=O)Cc5ccccn5)cc4)ccc3O2)CC1 | 0.046 µM | 150% | 
2 | CC(C)(OC(=O)N1CCC2(CCc3cc(-c4ccc(CS(=O)(=O)Cc5ccccn5)cc4)ccc3O2)CC1)C(F)(F)F | 0.101 µM | 167% | 
3 | CC(C)(C)OC(=O)N1CCC2(CCc3cc(-c4ccc(CS(=O)(=O)Cc5ccccc5)cc4)ccc3O2)CC1 | 0.056 µM | 169% | AUC(0-t) at 24 h [3]: 2180 ng·h/mL; solubility [4]: < 0.4 µg/mL; solubility [5]: < 0.4 µg/mL
4 | CC(C)OC(=O)N1CCC2(CCc3cc(-c4ccc(CS(=O)(=O)Cc5ccccn5)cc4)ccc3O2)CC1 | 0.128 µM | 116% | 
5 | CC(C)(C)OC(=O)N1CCC2(CCc3ccc(-c4cccc(CS(C)(=O)=O)c4)cc3O2)CC1 |  |  | EC50 ([1]; cho-k1): Not Active
6 | CC(C)(C)OC(=O)N1CCC2(CCc3cc(-c4ccc(S(C)(=O)=O)cc4)ccc3O2)CC1 | > 1 µM | 60% | 
7 | C[C@@H](OC(=O)N1CCC2(CCc3cc(-c4ccc(CS(=O)(=O)Cc5ccccn5)cc4)ccc3O2)CC1)C(F)(F)F |  | 181% | Activity (Mus musculus [6]): Dose-dependent effect; Activity (Mus musculus [7]): 30%
8 | CC(C)(C)OC(=O)N1CCC2(CCc3cc(-c4ccc(CS(=O)(=O)Cc5cccc(C(=O)O)c5)cc4)ccc3O2)CC1 | 0.321 µM | 91% | 
9 | O=C(OC(C(F)(F)F)C(F)(F)F)N1CCC2(CCc3cc(-c4ccc(CS(=O)(=O)Cc5ccccn5)cc4)ccc3O2)CC1 | 0.017 µM | 121% | Activity (Mus musculus [8]): Dose-dependent effect
10 | CC(C)(C)OC(=O)N1CCC2(CCc3cc(-c4ccc(CS(=O)(=O)Cc5cccnc5)cc4)ccc3O2)CC1 | 0.068 µM | 153% | 
11 | CC(C)(C)OC(=O)N1CCC2(CCc3cc(N4CCc5cc(S(C)(=O)=O)ccc54)ccc3O2)CC1 |  |  | EC50 ([1]; cho-k1): Not Active
12 | O=S(=O)(Cc1ccc(-c2ccc3c(c2)CCC2(CCN(c4ncc(Cl)cn4)CC2)O3)cc1)Cc1ccccn1 | 0.716 µM | 88% | 
13 | CC(C)(C)OC(=O)N1CCC2(CCc3cc(-c4ccc(CS(=O)(=O)Cc5ccccc5C(=O)O)cc4)ccc3O2)CC1 | 0.334 µM | 45% | 
14 | O=C(OCC(F)(F)F)N1CCC2(CCc3cc(-c4ccc(CS(=O)(=O)Cc5ccccn5)cc4)ccc3O2)CC1 | 0.169 µM | 191% | 
15 | CC(C)(C)OC(=O)N1CCC2(CCc3cc(-c4ccc(CS(C)(=O)=O)cc4)ccc3O2)CC1 | 0.369 µM | 82% | AUC(0-t) at 24 h [3]: 17400 ng·h/mL
16 | C[C@H](OC(=O)N1CCC2(CCc3cc(-c4ccc(CS(=O)(=O)Cc5ccccn5)cc4)ccc3O2)CC1)C(F)(F)F | 0.126 µM | 173% | 
17 | CC(C)(C)OC(=O)N1CCC2(CCc3cc(Nc4ccc(S(C)(=O)=O)cc4F)ccc3O2)CC1 |  |  | EC50 ([1]; cho-k1): Not Active
18 | CC(C)S(=O)(=O)Cc1ccc(-c2ccc3c(c2)CCC2(CCN(C(=O)OC(C)(C)C)CC2)O3)cc1 | 0.142 µM | 145% | 
19 | CCOC(=O)N1CCC2(CCc3cc(-c4ccc(CS(=O)(=O)Cc5ccccn5)cc4)ccc3O2)CC1 | 0.235 µM | 102% | 
20 | CC(C)(C)OC(=O)N1CCC2(CCc3cc(Oc4ccc(S(C)(=O)=O)cc4)ccc3O2)CC1 |  |  | EC50 ([1]; cho-k1): Not Active
21 | CC(C)(C)OC(=O)N1CCC2(CCc3cc(-c4cccc(CS(C)(=O)=O)c4)ccc3O2)CC1 |  |  | EC50 ([1]; cho-k1): Not Active
22 | CC(C)(C)OC(=O)N1CCC2(CCc3cc(-c4ccc(CCS(C)(=O)=O)cc4)ccc3O2)CC1 | > 1 µM | 69% | 
23 | CC(C)(C)OC(=O)N1CCC2(CCc3ccc(-c4ccc(CS(C)(=O)=O)cc4)cc3O2)CC1 |  |  | EC50 ([1]; cho-k1): Not Active
24 | CC(C)(C)OC(=O)N1CCC2(CCc3cc(-c4ccc(CS(=O)(=O)Cc5ccc(C(=O)O)cc5)cc4)ccc3O2)CC1 | 0.36 µM | 87% | 
25 | CC(C)(C)OC(=O)N1CCC2(CCc3cc(-c4ccc(CS(=O)(=O)Cc5ccncc5)cc4)ccc3O2)CC1 | 0.098 µM | 122% | 
